Measurements as given in patent US9981940B2, “Aryl sulfide derivatives and aryl sulfoxide derivatives as acaricides and insecticides” (BAYER CROPSCIENCE AKTIENGESELLSCHAFT, priority 2013, dated 2018).

Columns and labels:
[1] = log P by HPLC (OECD Guideline 117), method [b] neutral range; assay type: physicochemical; conditions: HPLC; for logP[b]: method [b] neutral range
Method: (§1) The log P values were determined analogously to OECD Guideline 117 (EC Directive 92/69/EEC) by HPLC (high-performance liquid chromatography) using reversed-phase columns (C 18), by the following methods:
[b] The LC-MS determination in the neutral range is effected at pH 7.8 with 0.001 molar aqueous ammonium hydrogencarbonate solution and acetonitrile as eluents; linear gradient from 10% acetonitrile to 95% acetonitrile.

[2] = log P by HPLC (OECD Guideline 117), method [a] acidic range; assay type: physicochemical; conditions: HPLC; for logP[a]: method [a] acidic range
Method: as §1
[a] The LC-MS determination in the acidic range is effected at pH 2.7 with 0.1% aqueous formic acid and acetonitrile (contains 0.1% formic acid) as eluents; linear gradient from 10% acetonitrile to 95% acetonitrile.

Tetranychus urticae = Tetranychus urticae spray test, OP-resistant (TETRUR); assay type: in vivo; conditions: after 6 days
Outline: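 Bean leaf discs infested with all stages of an OP-resistant Tetranychus urticae strain sprayed with compound in acetone/DMF with alkylaryl polyglycol ether emulsifier, diluted in water. Efficacy in % scored after 6 days; 100% means all mites killed.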

| Structure (SMILES) | logP[b] [1] | logP[a] [2] | log P[b] ([1]; neutral range, pH 7.8) | log P[a] ([2]; acidic range, pH 2.7) | efficacy (Tetranychus urticae; application rate of 500 g/ha) [%] | efficacy (Tetranychus urticae; application rate of 100 g/ha) [%] |
| --- | --- | --- | --- | --- | --- | --- |
| COc1cc(F)c(-n2nc(OCC(C)(C)C)n(C3CC3)c2=O)cc1SCC(F)(F)F [Example 395] | 4.32 | 4.38 |  |  | 100 |  |
| C=CCn1c([S+]([O-])C(C)C)nn(-c2cc([S+]([O-])CC(F)(F)F)c(C)cc2F)c1=O (centres unmarked) [Example 249] | 2.26 | 2.32 |  |  | 90 |  |
| Cc1cc(F)c(-n2nc(N(C)C)n(N)c2=O)cc1[S+]([O-])CC(F)(F)F (centres unmarked) [Example 221] | 1.60 | 1.63 |  |  | 100 |  |
| Cc1cc(F)c(-n2nc(C)n(C3CC3)c2=O)cc1SCC(F)(F)F [Example 42] | 2.73 | 2.76 |  |  | 90 |  |
| Cc1cc(F)c(-n2nc(-c3ccc(Cl)cc3)oc2=O)cc1SCC(F)(F)F [Example 458] | 4.78 | 4.85 |  |  | 100 |  |
| CCCOc1nn(-c2cc([S+]([O-])CC(F)(F)F)c(C)cc2F)c(=O)n1C1CC1 (centres unmarked) [Example 112] | 2.79 | 2.83 |  |  | 90 |  |
| COC1=CC(=O)N(c2ccc(C)c([S+]([O-])CC(F)(F)F)c2)C1 (racemic) [Example 317] | 1.90 | 1.90 |  |  | 90 |  |
| Cc1cc(F)c(-n2nc(C3CCCCC3)n(C3CC3)c2=O)cc1[S+]([O-])CC(F)(F)F (centres unmarked) [Example 361] | 3.31 | 3.34 |  |  | 100 |  |
| C=CCn1c(SCCC)nn(-c2cc([S+]([O-])CC(F)(F)F)c(C)cc2F)c1=O (centres unmarked) [Example 430] | 3.33 | 3.18 |  |  | 90 |  |
| CCOc1nn(-c2cc([S+]([O-])CC(F)(F)F)c(C)cc2F)c(=O)n1CC (centres unmarked) [Example 409] | 2.44 | 2.44 |  |  | 90 |  |
| CCCSc1nn(-c2cc(SCC(F)(F)F)c(C)cc2F)c(=O)n1CC [Example 288] | 3.13 | 3.18 |  |  | 100 |  |
| CCCCc1nn(-c2cc(SCC(F)(F)F)c(C)cc2F)c(=O)n1C1CC1 [Example 71] | 3.96 | 4.05 |  |  | 90 |  |
| CCn1c(C(F)(F)F)nn(-c2cc(SCC(F)(F)F)c(C)cc2F)c1=O [Example 57] | 3.88 | 3.96 |  |  | 90 |  |
| CCC[S+]([O-])c1nn(-c2cc([S+]([O-])CC(F)(F)F)c(C)cc2F)c(=O)n1CC (centres unmarked) [Example 251] | 2.18 | 2.22 |  |  | 100 |  |
| Cc1cc(F)c(-n2nc([S+]([O-])C(C)C)n(C3CC3)c2=O)cc1SCC(F)(F)F (centres unmarked) [Example 238] | 2.92 | 2.99 |  |  | 100 |  |
| Cc1cc(F)c(-n2nc(CC(C)C)n(C3CC3)c2=S)cc1SCC(F)(F)F [Example 493] | 4.35 | 4.44 |  |  | 100 |  |

Further lines, with some results ahead:

| logP[b] [1] | logP[a] [2] | log P[b] ([1]; neutral range, pH 7.8) | log P[a] ([2]; acidic range, pH 2.7) | Structure (SMILES) | efficacy (Tetranychus urticae; application rate of 500 g/ha) [%] | efficacy (Tetranychus urticae; application rate of 100 g/ha) [%] |
| --- | --- | --- | --- | --- | --- | --- |
| 2.04 | 2.06 |  |  | CNc1nn(-c2cc(SCC(F)(F)F)c(C)cc2F)c(=O)n1N [Example 218] | 90 |  |
| 1.69 | 1.69 |  |  | Cc1cc(F)c(-n2ncn(C3CC3)c2=O)cc1[S+]([O-])CC(F)(F)F (racemic) [Example 62] |  | 100 |
| 3.17 | 3.24 |  |  | C=CCn1c(SC(C)C)nn(-c2cc([S+]([O-])CC(F)(F)F)c(C)cc2F)c1=O (racemic) [Example 285] | 100 |  |
| 2.74 | 2.80 |  |  | CCCSc1nn(-c2cc([S+]([O-])CC(F)(F)F)c(C)cc2F)c(=O)n1C (centres unmarked) [Example 278] | 100 |  |
| 3.63 | 3.69 |  |  | Cc1cc(F)c(-n2ccn(C(C)(C)C)c2=O)cc1SCC(F)(F)F [Example 488] | 100 |  |
| 3.92 | 4.03 |  |  | Cc1cc(F)c(-n2nc(OCC(C)C)n(C)c2=O)cc1SCC(F)(F)F [Example 148] | 90 |  |
| 4.07 | 4.13 |  |  | C=CCSc1nn(-c2cc(SCC(F)(F)F)c(C)cc2F)c(=O)n1CC=C [Example 429] | 90 |  |
| 3.34 | 3.38 |  |  | Cc1cc(F)c(-n2ncn(Cc3ccccc3)c2=O)cc1SCC(F)(F)F [Example 368] | 100 |  |
| 2.33 | 2.31 |  |  | Cc1cc(F)c(-n2nc(C3CC3)n(C3CC3)c2=O)cc1[S+]([O-])CC(F)(F)F (racemic) [Example 66] | 100 |  |
| 4.37 | 4.45 |  |  | C=CCn1c(SCCC)nn(-c2cc(SCC(F)(F)F)c(C)cc2F)c1=O [Example 427] | 90 |  |
| 3.20 | 3.20 |  |  | Cc1cc(F)c(-n2nc(-c3ccncc3)oc2=O)cc1SCC(F)(F)F [Example 459] | 90 |  |
| 1.98 | 2.02 |  |  | CNn1c(N(C)C)nn(-c2cc([S+]([O-])CC(F)(F)F)c(C)cc2F)c1=O (centres unmarked) [Example 217] | 90 |  |
| 2.83 | 2.90 |  |  | Cc1cc(F)c(-n2nc(OCC(C)C)n(C)c2=O)cc1[S+]([O-])CC(F)(F)F (centres unmarked) [Example 152] | 90 |  |
| 4.00 | 3.99 |  |  | Cc1cc(F)c(N2C(=O)C(Cl)=C(Cl)C2=O)cc1SCC(F)(F)F [Example 338] | 90 |  |
| 4.01 | 4.10 |  |  | C=CCSc1nn(-c2cc(SCC(F)(F)F)c(C)cc2F)c(=O)n1C1CC1 [Example 425] | 100 |  |
| 3.18 | 3.22 |  |  | Cc1cc(F)c(-n2nc(C(F)(F)F)n(C(C)C)c2=O)cc1[S+]([O-])CC(F)(F)F (centres unmarked) [Example 363] | 100 |  |
| 3.55 | 3.62 |  |  | Cc1cc(F)c(-n2nc(C3CC3)oc2=O)cc1SCC(F)(F)F [Example 456] | 100 |  |
| 1.96 | 1.99 |  |  | Cc1cc(F)c(-n2nc(C3CC3)n(C)c2=O)cc1[S+]([O-])CC(F)(F)F (racemic) [Example 352] | 90 |  |
| 2.42 | 2.48 |  |  | CC=Cc1nn(-c2cc([S+]([O-])CC(F)(F)F)c(C)cc2F)c(=O)n1C1CC1 (racemic) [Example 82] | 100 |  |
| 3.91 | 3.97 |  |  | Cc1cc(F)c(-n2nc(C(F)(F)F)n(C3CC3)c2=O)cc1SCC(F)(F)F [Example 59] | 100 |  |
| 3.17 | 3.25 |  |  | C=C(C)CCOc1nn(-c2cc([S+]([O-])CC(F)(F)F)c(C)cc2F)c(=O)n1C1CC1 (centres unmarked) [Example 137] | 90 |  |
| 3.70 | 3.73 | 3.67 | 2.07 | CC1=C(C)C(=O)N(c2cc(SCC(F)(F)F)c(C)cc2C)C1=O [Example 342] | 90 |  |
| 3.53 | 3.62 |  |  | CCOc1nn(-c2cc(SCC(F)(F)F)c(C)cc2F)c(=O)n1CC [Example 401] | 100 |  |
